Molecular target: T1, human Nav1.8 (Homo sapiens, UniProt Q9Y5Y9)
T1 construct: expressed in transfected cells; host or cells: HEK293 (HEK293-Nav1.8)
Assay: Nav1.8 sodium channels assay, QPatch 48 HTX electrophysiology in HEK293-Nav1.8 cells
Assay type: cell-based
Details: at least one set of experimental runs; read-out: average pIC50 value against Nav1.8 (converted)
How it was run: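 IC50 came from 6-8 point curves of P2 current amplitude, normalized to baseline and a positive reference, and corrected for run-down using vehicle-only wells. Automated patch clamp used HEK293-Nav1.8 (with Navβ1 and TREK1) at pH 7.4 outside and CsF-based solution inside. An 8 s inactivating step at −46 mV preceded the 0 mV test pulse, repeated at 0.07 Hz.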

T1 sequence (Q9Y5Y9 whole entry): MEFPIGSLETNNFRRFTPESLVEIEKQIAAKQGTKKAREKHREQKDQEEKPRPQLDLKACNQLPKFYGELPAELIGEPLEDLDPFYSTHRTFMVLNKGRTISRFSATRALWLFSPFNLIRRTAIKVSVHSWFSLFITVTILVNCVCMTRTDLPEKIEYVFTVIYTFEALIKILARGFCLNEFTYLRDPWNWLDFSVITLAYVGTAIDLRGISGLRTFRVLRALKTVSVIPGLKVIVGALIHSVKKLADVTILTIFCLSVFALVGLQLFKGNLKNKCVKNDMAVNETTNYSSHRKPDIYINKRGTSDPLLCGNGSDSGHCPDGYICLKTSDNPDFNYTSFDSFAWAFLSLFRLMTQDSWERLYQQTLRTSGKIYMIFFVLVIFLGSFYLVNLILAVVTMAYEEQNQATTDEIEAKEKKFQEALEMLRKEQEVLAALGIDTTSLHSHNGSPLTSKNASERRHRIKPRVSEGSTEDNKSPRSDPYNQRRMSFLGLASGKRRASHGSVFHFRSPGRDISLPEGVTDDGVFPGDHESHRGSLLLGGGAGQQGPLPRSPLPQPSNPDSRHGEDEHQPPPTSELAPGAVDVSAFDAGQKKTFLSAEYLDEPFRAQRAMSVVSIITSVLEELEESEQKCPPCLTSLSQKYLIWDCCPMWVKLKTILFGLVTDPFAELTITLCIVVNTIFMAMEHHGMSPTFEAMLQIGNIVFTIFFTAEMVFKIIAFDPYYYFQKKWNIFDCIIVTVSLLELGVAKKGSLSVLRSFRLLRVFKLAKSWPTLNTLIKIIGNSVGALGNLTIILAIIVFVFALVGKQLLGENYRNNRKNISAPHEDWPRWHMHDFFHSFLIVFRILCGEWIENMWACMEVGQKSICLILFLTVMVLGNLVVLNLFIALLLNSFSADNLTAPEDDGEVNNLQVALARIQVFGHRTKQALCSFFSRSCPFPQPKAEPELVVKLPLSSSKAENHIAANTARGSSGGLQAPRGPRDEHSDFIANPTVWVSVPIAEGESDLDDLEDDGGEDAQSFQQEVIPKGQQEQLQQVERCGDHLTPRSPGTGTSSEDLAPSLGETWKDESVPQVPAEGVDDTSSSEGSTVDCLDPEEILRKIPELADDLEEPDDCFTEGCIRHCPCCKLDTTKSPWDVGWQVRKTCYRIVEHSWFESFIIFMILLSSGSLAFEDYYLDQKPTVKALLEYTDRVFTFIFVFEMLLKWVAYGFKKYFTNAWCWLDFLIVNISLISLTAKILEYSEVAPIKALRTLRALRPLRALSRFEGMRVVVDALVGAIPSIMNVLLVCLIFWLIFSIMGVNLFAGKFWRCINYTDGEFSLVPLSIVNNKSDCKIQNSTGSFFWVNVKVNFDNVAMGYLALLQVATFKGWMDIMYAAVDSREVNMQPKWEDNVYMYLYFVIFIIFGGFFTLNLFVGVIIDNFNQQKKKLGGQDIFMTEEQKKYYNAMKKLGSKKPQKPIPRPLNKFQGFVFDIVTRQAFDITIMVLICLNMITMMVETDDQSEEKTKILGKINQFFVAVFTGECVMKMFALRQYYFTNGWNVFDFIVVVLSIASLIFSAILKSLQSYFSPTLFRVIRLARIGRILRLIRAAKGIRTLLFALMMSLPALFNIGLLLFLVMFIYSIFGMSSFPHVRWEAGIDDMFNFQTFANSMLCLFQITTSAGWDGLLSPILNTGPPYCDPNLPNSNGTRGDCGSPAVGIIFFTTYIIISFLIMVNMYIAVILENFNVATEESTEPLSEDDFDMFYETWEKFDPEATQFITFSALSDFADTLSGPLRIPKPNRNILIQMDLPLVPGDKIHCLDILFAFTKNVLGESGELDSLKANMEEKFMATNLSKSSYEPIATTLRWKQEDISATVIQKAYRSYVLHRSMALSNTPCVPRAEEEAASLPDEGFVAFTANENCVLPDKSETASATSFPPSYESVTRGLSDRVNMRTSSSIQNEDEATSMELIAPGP
T1 sequence (Q07699 19-218 partner): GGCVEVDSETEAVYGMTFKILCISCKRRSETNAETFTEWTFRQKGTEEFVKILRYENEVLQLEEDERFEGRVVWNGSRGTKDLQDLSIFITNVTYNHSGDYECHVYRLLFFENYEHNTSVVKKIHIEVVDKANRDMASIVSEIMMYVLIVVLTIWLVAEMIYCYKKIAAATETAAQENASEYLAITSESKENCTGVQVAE

| IC50 | Compound |
| --- | --- |
| 126 to 631 nM | Cc1ccc(F)cc1N1CN(c2ccc(=O)[nH]c2C)C(=O)c2cc(C(F)(F)F)ccc21 [Example 118, 1-(5-fluoro-2-methylphenyl)-3-(2-methyl-6-oxo-1,6-dihydropyridin-3-yl)-6-(trifluoromethyl)-2,3-dihydroquinazolin-4(1H)-one] |
| 126 to 631 nM | Cc1cc(OC(F)(F)F)ccc1N1CN(c2ccc(=O)[nH]c2)C(=O)c2cc(C(F)(F)F)cnc21 [Example 119, 1-(2-methyl-4-(trifluorometh-oxy)phenyl)-3-(6-oxo-1,6-dihydropyridin-3-yl)-6-(trifluoromethyl)-2,3-dihydropyrido[2,3-d]pyrimidin-4(1H)-one] |
| ≤ 100 nM | Cc1[nH]c(=O)ccc1N1CN(c2cccc(F)c2C)c2ccc(C(F)(F)F)cc2C1=O [Example 120, 1-(3-fluoro-2-methylphenyl)-3-(2-methyl-6-oxo-1,6-dihydropyridin-3-yl)-6-(trifluoromethyl)-2,3-dihydroquinazolin-4(1H)-one] |
| 126 to 631 nM | Cc1cc(F)cc(F)c1N1CN(c2ccc(=O)[nH]c2C)C(=O)c2cc(C(F)(F)F)ccc21 [Example 121, 1-(2,4-difluoro-6-methylphenyl)-3-(2-methyl-6-oxo-1,6-dihydropyridin-3-yl)-6-(trifluoromethyl)-2,3-dihydroquinazolin-4(1H)-one] |
| ≤ 100 nM | Cc1[nH]c(=O)ccc1N1CN(c2ccc(F)cc2C(C)C)c2nc(C(F)F)ccc2C1=O [Example 122, 7-(difluoromethyl)-1-(4-fluoro-2-isopropylphenyl)-3-(2-methyl-6-oxo-1,6-dihydropyridin-3-yl)-2,3-dihydropyrido[2,3-d]pyrimidin-4(1H)-one] |
| ≤ 100 nM | Cc1cc(C#N)ccc1N1CN(c2ccc(=O)[nH]c2C)C(=O)c2cc(OC(F)(F)F)ccc21 [Example 123, 3-methyl-4-(3-(2-methyl-6-oxo-1,6-dihydropyridin-3-yl)-4-oxo-6-(trifluoromethoxy)-3,4-dihydroquinazolin-1(2H)-yl)benzonitrile] |
| 794 to 7940 nM | Cc1cc(F)ccc1N1CN(c2ccc(=O)[nH]c2C)C(=O)c2cccc(Cl)c21 [Example 124, 8-chloro-1-(4-fluoro-2-methylphenyl)-3-(2-methyl-6-oxo-1,6-dihydropyridin-3-yl)-2,3-dihydroquinazolin-4(1H)-one] |
| 794 to 7940 nM | Cc1cc(F)ccc1N1CN(c2ccc(=O)[nH]c2C)C(=O)c2cccc(C)c21 [Example 125, 1-(4-fluoro-2-methylphenyl)-8-methyl-3-(2-methyl-6-oxo-1,6-dihydropyridin-3-yl)-2,3-dihydroquinazolin-4(1H)-one] |
| ≤ 100 nM | COc1ccc(N2CN(c3ccc(=O)[nH]c3C)C(=O)c3cc(C(F)(F)F)ccc32)c(C)c1 [Example 126, 1-(4-methoxy-2-methylphenyl)-3-(2-methyl-6-oxo-1,6-dihydropyridin-3-yl)-6-(trifluoromethyl)-2,3-dihydroquinazolin-4(1H)-one] |
| 126 to 631 nM | Cc1cc(O)ccc1N1CN(c2ccc(=O)[nH]c2C)C(=O)c2cc(C(F)(F)F)ccc21 [Example 127, 1-(4-hydroxy-2-methylphenyl)-3-(2-methyl-6-oxo-1,6-dihydropyridin-3-yl)-6-(trifluoromethyl)-2,3-dihydroquinazolin-4(1H)-one] |
| 126 to 631 nM | Cc1[nH]c(=O)ccc1N1CN(c2cccc(C#N)c2C)c2ccc(Cl)cc2C1=O [Example 128, 3-(6-chloro-3-(2-methyl-6-oxo-1,6-dihydropyridin-3-yl)-4-oxo-3,4-dihydroquinazolin-1(2H)-yl)-2-methylbenzonitrile] |
| ≤ 100 nM | Cc1cc(F)ccc1N1CN(c2ccc(=O)[nH]c2C)C(=O)c2cc(F)c(OC(F)(F)F)cc21 [Example 129, 6-fluoro-1-(4-fluoro-2-methylphenyl)-3-(2-methyl-6-oxo-1,6-dihydropyridin-3-yl)-7-(trifluoromethoxy)-2,3-dihydroquinazolin-4(1H)-one] |
| 126 to 631 nM | Cc1cc(F)ccc1N1CN(c2ccc(=O)[nH]c2C)C(=O)c2c(C(F)F)cccc21 [Example 130, 5-(difluoromethyl)-1-(4-fluoro-2-methylphenyl)-3-(2-methyl-6-oxo-1,6-dihydropyridin-3-yl)-2,3-dihydroquinazolin-4(1H)-one] |
| ≤ 100 nM | Cc1cc(F)ccc1N1CN(c2cc(F)c(=O)[nH]c2C)C(=O)c2cc(C(F)(F)F)ccc21 [Example 131, 3-(5-fluoro-2-methyl-6-oxo-1,6-dihydropyridin-3-yl)-1-(4-fluoro-2-methylphenyl)-6-(trifluoromethyl)-2,3-dihydroquinazolin-4(1H)-one] |
| 126 to 631 nM | COc1cc(F)ccc1N1CN(c2ccc(=O)[nH]c2C)C(=O)c2cc(F)c(F)cc21 [Example 132, 6,7-difluoro-1-(4-fluoro-2-methoxyphenyl)-3-(2-methyl-6-oxo-1,6-dihydropyridin-3-yl)-2,3-dihydroquinazolin-4(1H)-one] |
| 794 to 7940 nM | Cc1ccc(N2CN(c3ccc(=O)[nH]c3C)C(=O)c3cc(Cl)ccc32)c(O)c1 [Example 133, 6-chloro-1-(2-hydroxy-4-methylphenyl)-3-(2-methyl-6-oxo-1,6-dihydropyridin-3-yl)-2,3-dihydroquinazolin-4(1H)-one] |

| IC50 | Compound |
| --- | --- |
| 126 to 631 nM | COc1cc(C)ccc1N1CN(c2ccc(=O)[nH]c2C)C(=O)c2cc(Cl)ccc21 [Example 134, 6-chloro-1-(2-methoxy-4-methylphenyl)-3-(2-methyl-6-oxo-1,6-dihydropyridin-3-yl)-2,3-dihydroquinazolin-4(1H)-one] |
| 794 to 7940 nM | Cc1cccc(F)c1N1CN(c2ccc(=O)[nH]c2C)C(=O)c2cc(C(F)(F)F)ccc21 [Example 135, 1-(2-fluoro-6-methylphenyl)-3-(2-methyl-6-oxo-1,6-dihydropyridin-3-yl)-6-(trifluoromethyl)-2,3-dihydroquinazolin-4(1H)-one] |
| 794 to 7940 nM | Cc1cc(F)ccc1N1CN(c2cc[nH]c(=O)c2)C(=O)c2c1ccc(Cl)c2F [Example 136, 6-chloro-5-fluoro-1-(4-fluoro-2-methylphenyl)-3-(2-oxo-1,2-dihydropyridin-4-yl)-2,3-dihydroquinazolin-4(1H)-one] |
| ≤ 100 nM | Cc1[nH]c(=O)ccc1N1CN(c2ccc(F)cc2C(C)C)c2cc(C(F)F)ccc2C1=O [Example 137, 7-(difluoromethyl)-1-(4-fluoro-2-isopropylphenyl)-3-(2-methyl-6-oxo-1,6-dihydropyridin-3-yl)-2,3-dihydroquinazolin-4(1H)-one] |
| ≤ 100 nM | Cc1cc(F)ccc1N1CN(c2ccc(=O)[nH]c2C)C(=O)c2ccc(C(F)F)cc21 [Example 138, 7-(difluoromethyl)-1-(4-fluoro-2-methylphenyl)-3-(2-methyl-6-oxo-1,6-dihydropyridin-3-yl)-2,3-dihydroquinazolin-4(1H)-one] |
| ≤ 100 nM | CCc1[nH]c(=O)ccc1N1CN(c2ccc(F)cc2C(C)C)c2ccc(Cl)cc2C1=O [Example 139, 6-chloro-3-(2-ethyl-6-oxo-1,6-dihydropyridin-3-yl)-1-(4-fluoro-2-isopropylphenyl)-2,3-dihydroquinazolin-4(1H)-one] |
| 126 to 631 nM | Cc1[nH]c(=O)ccc1N1CN(c2ccc(F)c(C#N)c2C)c2ccc(C(F)(F)F)cc2C1=O [Example 140, 6-fluoro-2-methyl-3-(3-(2-methyl-6-oxo-1,6-dihydropyridin-3-yl)-4-oxo-6-(trifluoromethyl)-3,4-dihydroquinazolin-1(2H)-yl)benzonitrile] |
| 126 to 631 nM | Cc1[nH]c(=O)ccc1N1CN(c2ccc(F)cc2C(C)C)c2ncc(F)cc2C1=O [Example 141, 6-fluoro-1-(4-fluoro-2-isopropylphenyl)-3-(2-methyl-6-oxo-1,6-dihydropyridin-3-yl)-2,3-dihydropyrido[2,3-d]pyrimidin-4(1H)-one] |
| ≤ 100 nM | Cc1[nH]c(=O)ccc1N1CN(c2ccc(F)cc2Br)c2ccc(C(F)(F)F)cc2C1=O [Example 142, 1-(2-bromo-4-fluorophenyl)-3-(2-methyl-6-oxo-1,6-dihydropyridin-3-yl)-6-(trifluoromethyl)-2,3-dihydroquinazolin-4(1H)-one] |
| ≤ 100 nM | Cc1cc(F)ccc1N1CN(c2ccc(=O)[nH]c2C)C(=O)c2cc(F)ccc21 [Example 143, 6-fluoro-1-(4-fluoro-2-methylphenyl)-3-(2-methyl-6-oxo-1,6-dihydropyridin-3-yl)-2,3-dihydroquinazolin-4(1H)-one] |
| 126 to 631 nM | O=C1c2ccc(C(F)(F)F)cc2N(c2ccc(F)cc2)CN1c1ccc(=O)[nH]c1 [Example 144, 1-(4-Fluorophenyl)-3-(6-oxo-1,6-dihydropyridin-3-yl)-7-(trifluoromethyl)-2,3-dihydroquinazolin-4(1H)-one] |
| 126 to 631 nM | Cc1cc(F)ccc1N1CN(c2cnc(=O)[nH]c2)C(=O)c2ccc(C(F)(F)F)cc21 [Example 145, 1-(4-fluoro-2-methylphenyl)-3-(2-oxo-1,2-dihydropyrimidin-5-yl)-7-(trifluoromethyl)-2,3-dihydroquinazolin-4(1H)-one] |
| 126 to 631 nM | Cc1cc(Br)ccc1N1CN(c2ccc(=O)[nH]c2)C(=O)c2ccc(C(F)(F)F)cc21 [Example 146, 1-(4-bromo-2-methylphenyl)-3-(6-oxo-1,6-dihydropyridin-3-yl)-7-(trifluoromethyl)-2,3-dihydroquinazolin-4(1H)-one] |
| 126 to 631 nM | Cc1[nH]c(=O)ccc1N1CN(c2ccc(F)cc2)c2cc(C(F)(F)F)ccc2C1=O [Example 147, 1-(4-fluorophenyl)-3-(2-methyl-6-oxo-1,6-dihydropyridin-3-yl)-7-(trifluoromethyl)-2,3-dihydroquinazolin-4(1H)-one] |
| ≤ 100 nM | Cc1cc(C#N)ccc1N1CN(c2ccc(=O)[nH]c2C)C(=O)c2ccc(C(F)(F)F)cc21 [Example 148, 3-methyl-4-(3-(2-methyl-6-oxo-1,6-dihydropyridin-3-yl)-4-oxo-7-(trifluoromethyl)-3,4-dihydroquinazolin-1(2H)-yl)benzonitrile] |

Reference: patent US20230103791A1 (GLAXOSMITHKLINE INTELLECTUAL PROPERTY DEVELOPMENT LIMITED, priority 2019, published 2023)
